# Entries after “also recorded” stand apart in the source; their conditions may differ. Bridges are numbered along the chain shown (N, C = ends). Where no end group is shown, it is not given here.
# What was measured:
# Kv1.5 = test: TEVC, Kv1.5 in Xenopus oocytes; assay type: cell-based, rat; conditions: 1 µM, n ≥ 3
# Source text: (§1) For the expression of Kv channels (rKv1.1, rKv1.2, rKv1.3, rKv1.4, rK1.5, rKv1.6, hKv2.1, hKv3.1, rKv4.2, hKv7.1, hKv7.2/7.3, hKv7.4, KQT1 (from the roundworm Caenorhabditis elegans), hKv10.1 (hEAG1), hKv11.1 (hERG1), and Shaker, from Drosophila melanogaster), Nav channels (rNav1.1, rNav1.2, rNav1.3, rNav1.4, hNav1.5, mNav1.6, hNav1.7, hNav1.8, and BgNav (from the cockroach Blattella germanica), as well as the hβ1 and rβ1 subunits, and Cav channels (rCav3.1, hCav3.2, and rCav3.3) in Xenopus oocytes, the linearized plasmids were transcribed using the T7 or SP6 mMESSAGEmMACHINE transcription kit (Ambion, Austin, TX, USA). Mature female animals were purchased from Nasco (Fort Atkinson, WI, USA) and were housed in the Aquatic Facility (KU Leuven) in compliance with the regulations of the European Union (EU) concerning the welfare of laboratory animals as declared in Directive 2010/63/EU. The use of X. laevis oocytes was approved by the Animal Ethics Committee of the KU Leuven, with the license number P186/2019. […]
# (§2) Whole-cell currents of oocytes were recorded 1 to 3 days after RNA injection. […] The current–voltage relationships were determined by 50 ms step depolarizations between −90 and +65 mV using 5 or 10 mV increments. All electrophysiological data were analyzed following the procedures described by Peigneur et al., 2012 [20].
# (§3) All values were expressed as means ± SEM. […]
# hKv7.1 = test: TEVC, Kv7.1 in Xenopus oocytes; assay type: cell-based, human
# Source text: (§4) For the expression of Kv channels (rKv1.1, rKv1.2, rKv1.3, rKv1.4, rK1.5, rKv1.6, hKv2.1, hKv3.1, rKv4.2, hKv7.1, hKv7.2/7.3, hKv7.4, KQT1 (from the roundworm Caenorhabditis elegans), hKv10.1 (hEAG1), hKv11.1 (hERG1), and Shaker, from Drosophila melanogaster), Nav channels (rNav1.1, rNav1.2, rNav1.3, rNav1.4, hNav1.5, mNav1.6, hNav1.7, hNav1.8, and BgNav (from the cockroach Blattella germanica), as well as the hβ1 and rβ1 subunits, and Cav channels (rCav3.1, hCav3.2, and rCav3.3) in Xenopus oocytes, the linearized plasmids were transcribed using the T7 or SP6 mMESSAGEmMACHINE transcription kit (Ambion, Austin, TX, USA). Mature female animals were purchased from Nasco (Fort Atkinson, WI, USA) and were housed in the Aquatic Facility (KU Leuven) in compliance with the regulations of the European Union (EU) concerning the welfare of laboratory animals as declared in Directive 2010/63/EU. The use of X. laevis oocytes was approved by the Animal Ethics Committee of the KU Leuven, with the license number P186/2019.
# (§5) Stage V–VI oocytes were collected from anesthetized female X. laevis frog as previously described, with the frogs anesthetized by placement in a 0.1% tricaine solution (amino benzoic acid ethyl ester; Merck, Kenilworth, NJ, USA). Oocyte microinjection was performed using a microinjector (Drummond Scientifc®, Broomall, PA, USA), with a programmed cRNA injection volume of 4–50 nL, depending on channel subtype. The oocytes were incubated in ND96 solution (96 mM NaCl; 2 mM KCl; 1.8 mM CaCl2; 2 mM MgCl2, and 5 mM HEPES, pH 7.4), supplemented with 50 mg/L of gentamicin sulfate.
# (§6) Electrophysiological measurements were performed at room temperature (18–22 °C) using the two-electrode voltage-clamp (TEVC) technique. Data were obtained using a GeneClamp 500 amplifier (Axon Instruments®, Burlingame, CA, USA) and Clampex9 software (Axon Instruments®, USA) was responsible for data acquisition and storage. Glass micropipettes were produced using glass capillaries (borosilicate WPI 1B120-6) and drawn in a WPI (World Precision Instruments®, Sarasota, FL, USA) manual stretcher. The bath and perfusion solutions were either the previously described ND96 (Nav and Kv channels) or calcium-free ND96 supplemented with 10 mM BaCl2 (Cav channels).
# (§7) Whole-cell currents of oocytes were recorded 1 to 3 days after RNA injection. The current and voltage electrodes were filled with 3 M KCl, and their resistance was adjusted from 1.0 to 2.5 MΩ. Currents were sampled at 20 kHz (Nav channels) and 10 kHz (Kv and Cav channels) and filtered using a four-pole Bessel low-pass Bessel filter at 1 kHz for sodium and […] for potassium and calcium, except for the hERG ion channel in which the currents were filtered at 1 kHz. Leak subtraction was performed using a P/4 protocol. Kv1.x currents were evoked by 500 ms depolarizations to 0 mV, followed by a 500 ms pulse to −50 mV from a holding potential of −90 mV. Kv2.1, Kv3.1, Kv4.2, Kv7.x, and KQT1 currents were elicited by 700 ms pulses to +20 mV from a holding potential of −90 mV. Current traces of the hERG1 channel were elicited by applying a +40 mV prepulse for 2 s, followed by a step of −120 mV for 2 s. […] The current–voltage relationships were determined by 50 ms step depolarizations between −90 and +65 mV using 5 or 10 mV increments. All electrophysiological data were analyzed following the procedures described by Peigneur et al., 2012 [20].
# as §3
# rNav1.4 = test: TEVC, Nav1.4 in Xenopus oocytes; assay type: cell-based, rat
# Source text: as §4, §5, §6, §7, §3
# hNav1.5 = test: TEVC, Nav1.5 in Xenopus oocytes; assay type: cell-based, human
# Source text: as §4, §5, §6
# (§8) Whole-cell currents of oocytes were recorded 1 to 3 days after RNA injection. The current and voltage electrodes were filled with 3 M KCl, and their resistance was adjusted from 1.0 to 2.5 MΩ. Currents were sampled at 20 kHz (Nav channels) and 10 kHz (Kv and Cav channels) and filtered using a four-pole Bessel low-pass Bessel filter at 1 kHz for sodium and […] for potassium and calcium, except for the hERG ion channel in which the currents were filtered at 1 kHz. Leak subtraction was performed using a P/4 protocol. Kv1.x currents were evoked by 500 ms depolarizations to 0 mV, followed by a 500 ms pulse to −50 mV from a holding potential of −90 mV. Kv2.1, Kv3.1, Kv4.2, Kv7.x, and KQT1 currents were elicited by 700 ms pulses to +20 mV from a holding potential of −90 mV. Current traces of the hERG1 channel were elicited by applying a +40 mV prepulse for 2 s, followed by a step of −120 mV for 2 s. Current traces of hEAG1 were elicited by a 2 s depolarization to 0 mV from a holding potential of −90 mV. Sodium current traces were evoked by a 100 ms depolarization to 0 mV. For Cav channels, current traces were elicited by 700 ms depolarizations to −20 mV from a holding potential of −90 mV. The current–voltage relationships were determined by 50 ms step depolarizations between −90 and +65 mV using 5 or 10 mV increments. All electrophysiological data were analyzed following the procedures described by Peigneur et al., 2012 [20].
# (§9) All values were expressed as means ± SEM. Differences in ionic currents between the control and toxin conditions were compared by a one-way ANOVA, followed by Dunnett’s multiple comparisons test. Differences were considered statistically significant when […].
# hNav1.8 = test: TEVC, Nav1.8 in Xenopus oocytes; assay type: cell-based, human
# Source text: as §4, §5, §6, §8, §9
# hKv7.4 = test: TEVC, Kv7.4 in Xenopus oocytes; assay type: cell-based, human
# Source text: as §4, §5, §6
# as §2, with “injection. The current and voltage electrodes were filled with 3 M KCl, and their resistance was adjusted from 1.0 to 2.5 MΩ.” for “injection.”
# as §3
# hKv10.1 (hEAG1) = test: TEVC, Kv10.1 in Xenopus oocytes; assay type: cell-based, human; conditions: 1 µM, ND96 pH 7.4, 18–22 °C, n ≥ 3
# Source text: as §1, §2, §3
# [1] = test system: T-type voltage-gated calcium channels; test: TEVC panel of three T-type Cav channels, voltage dependence; assay type: cell-based; conditions: 1 µM vs control
# Source text: as §1, §2, §3
# rNav1.1 = test: TEVC, Nav1.1 in Xenopus oocytes; assay type: cell-based, rat
# Source text: as §4, §5, §6, §7, §3
# rKv1.2 = test: TEVC, Kv1.2 in Xenopus oocytes; assay type: cell-based, rat
# Source text: as §4, §5, §6
# as §2, with “injection. The current and voltage electrodes were filled with 3 M KCl, and their resistance was adjusted from 1.0 to 2.5 MΩ.” for “injection.”
# as §3
# hCav3.2 = test: TEVC, Cav3.2 in Xenopus oocytes; assay type: cell-based, human
# Source text: as §4, §5, §6, §7, §3
# [2] = 1 µM, TEVC, ND96 pH 7.4, 18–22 °C, n ≥ 3
# [3] = 1 µM, 100 ms depolarization to 0 mV, mean ± SEM, n ≥ 3
# [4] = 1 µM vs control (ND96 Ca2+ free)
sequence,measurement,setting,value
"GTPCKCHGYIGVYWFMLAGCPNGYGYNLSCPYFLGICCVKK (disulfide 4-37, 6-30, 20-38 (inferred)) [Hcr 1b-2]","activity (inhibition of current), Kv1.5","Kv1.5; 500 ms depolarization to 0 mV from −90 mV, mean ± SEM",41.9 ± 4.7%
same,"effect on potassium current, Kv1.5","Kv1.5; TEVC, ND96 pH 7.4, 18–22 °C",inhibition
same,"gating-modifier effect (voltage-current relationship), Kv7.1",hKv7.1; 1 µM,stronger shift
same,"Shift in Vhalf activation, Kv7.1",hKv7.1; 1 µM vs control (ND96),6.4 mV
same,"activity (inhibition of current), Kv7.1","hKv7.1; 1 µM, 700 ms pulse to +20 mV from −90 mV, mean ± SEM, n ≥ 3",36.2 ± 1.3%
same,"effect on potassium current, Kv7.1",hKv7.1; [2],inhibition; also recorded: inhibits
same,"Vhalf activation, Kv7.1","hKv7.1; 1 µM, control (ND96) 5.8 ± 0.4, mean ± SEM",12.2 ± 0.6 mV
same,"Shift in Vhalf activation, Nav1.4",rNav1.4; 1 µM vs control (ND96),5.5 mV
same,"Shift in Vhalf inactivation, Nav1.4",rNav1.4; 1 µM vs control (ND96),−1.7 mV
same,"reduction of peak amplitude (INa), Nav1.4",rNav1.4; [3],29.1 ± 3.0%
same,"Vhalf activation, Nav1.4","rNav1.4; 1 µM, control (ND96) −24.4 ± 0.1, mean ± SEM, n ≥ 3",−18.9 ± 0.1 mV
same,"Vhalf inactivation, Nav1.4","rNav1.4; 1 µM, control (ND96) −48.5 ± 0.3, mean ± SEM, n ≥ 3",−50.2 ± 0.2 mV
same,"effect on activation or inactivation, Nav1.5",hNav1.5; 1 µM,no significant effect
same,"Shift in Vhalf activation, Nav1.5",hNav1.5; 1 µM vs control (ND96),3.8 mV
same,"Shift in Vhalf inactivation, Nav1.5",hNav1.5; 1 µM vs control (ND96),−3.2 mV
same,"reduction of peak amplitude (INa), Nav1.5",hNav1.5; [3],41.6 ± 5.9%
same,"Vhalf activation, Nav1.5","hNav1.5; 1 µM, control (ND96) −38.5 ± 0.1, mean ± SEM, n ≥ 3",−34.7 ± 0.1 mV
same,"Vhalf inactivation, Nav1.5","hNav1.5; 1 µM, control (ND96) −66.0 ± 0.2, mean ± SEM, n ≥ 3",−69.2 ± 0.2 mV
same,"effect on activation or inactivation, Nav1.8",hNav1.8; 1 µM,no significant effect
same,"Shift in Vhalf activation, Nav1.8",hNav1.8; 1 µM vs control (ND96),−0.3 mV
same,"Shift in Vhalf inactivation, Nav1.8",hNav1.8; 1 µM vs control (ND96),−1.3 mV
same,"reduction of peak amplitude (INa), Nav1.8",hNav1.8; [3],18.5 ± 1.9%
same,"Vhalf activation, Nav1.8","hNav1.8; 1 µM, control (ND96) −2.3 ± 0.1, mean ± SEM, n ≥ 3",−2.6 ± 0.1 mV
same,"Vhalf inactivation, Nav1.8","hNav1.8; 1 µM, control (ND96) −35.6 ± 0.4, mean ± SEM, n ≥ 3",−36.9 ± 0.5 mV
same,"gating-modifier effect (voltage-current relationship), Kv7.4",hKv7.4; 1 µM,stronger shift
same,"Shift in Vhalf activation, Kv7.4",hKv7.4; 1 µM vs control (ND96),7.1 mV
same,"effect on potassium current, Kv7.4",hKv7.4; [2],inhibition; also recorded: inhibits
same,"Vhalf activation, Kv7.4","hKv7.4; 1 µM, control (ND96) 3.8 ± 0.3, mean ± SEM",10.9 ± 0.3 mV
same,"effect on potassium current, Kv10.1",hKv10.1 (hEAG1),not active
same,"changes in voltage–current relationship, Cav3.1–3.3 activation and inactivation",[1],insignificant changes
same,"Shift in Vhalf activation, Nav1.1",rNav1.1; 1 µM vs control (ND96),0.1 mV
same,"Shift in Vhalf inactivation, Nav1.1",rNav1.1; 1 µM vs control (ND96),−5.8 mV
same,"reduction of peak amplitude (INa) / inhibition, Nav1.1",rNav1.1; [3],31.2 ± 3.8%
same,"Vhalf activation, Nav1.1","rNav1.1; 1 µM, control (ND96) −24.6 ± 0.1, mean ± SEM, n ≥ 3",−24.5 ± 0.1 mV
same,"Vhalf inactivation, Nav1.1","rNav1.1; 1 µM, control (ND96) −37.2 ± 0.2, mean ± SEM, n ≥ 3",−43 ± 0.4 mV
same,"gating-modifier effect (voltage-current relationship), Kv1.2",rKv1.2; 1 µM,non-significant gating-modifier effect
same,"Shift in Vhalf activation, Kv1.2",rKv1.2; 1 µM vs control (ND96),−4.9 mV
same,"effect on potassium current, Kv1.2",rKv1.2; [2],activation
same,"Vhalf activation, Kv1.2","rKv1.2; 1 µM, control (ND96) −24.7 ± 0.7, mean ± SEM",−29.6 ± 0.89 mV
same,"Shift in Vhalf activation, Cav3.2",hCav3.2; [4],−0.4 mV
same,"Shift in Vhalf inactivation, Cav3.2",hCav3.2; [4],0.5 mV
same,"inhibition, Cav3.2","hCav3.2; 1 µM, calcium-free ND96 + 10 mM BaCl2, 700 ms depolarization to −20 mV from −90 mV, mean ± SEM, n ≥ 3",35.1 ± 0.7%
same,"Vhalf activation, Cav3.2","hCav3.2; 1 µM, control (ND96 Ca2+ free) −31.9 ± 0.1, mean ± SEM, n ≥ 3",−32.3 ± 0.2 mV
same,"Vhalf inactivation, Cav3.2","hCav3.2; 1 µM, control (ND96 Ca2+ free) −46.6 ± 0.8, mean ± SEM, n ≥ 3",−46.1 ± 0.6 mV
